Assay results as given in ChEMBL document CHEMBL4130354 (Eur J Med Chem, 2017).

Molecular target: T1, Prostaglandin G/H synthase 2 (Ovis aries, UniProt P79208)
T1 sequence (P79208 whole entry): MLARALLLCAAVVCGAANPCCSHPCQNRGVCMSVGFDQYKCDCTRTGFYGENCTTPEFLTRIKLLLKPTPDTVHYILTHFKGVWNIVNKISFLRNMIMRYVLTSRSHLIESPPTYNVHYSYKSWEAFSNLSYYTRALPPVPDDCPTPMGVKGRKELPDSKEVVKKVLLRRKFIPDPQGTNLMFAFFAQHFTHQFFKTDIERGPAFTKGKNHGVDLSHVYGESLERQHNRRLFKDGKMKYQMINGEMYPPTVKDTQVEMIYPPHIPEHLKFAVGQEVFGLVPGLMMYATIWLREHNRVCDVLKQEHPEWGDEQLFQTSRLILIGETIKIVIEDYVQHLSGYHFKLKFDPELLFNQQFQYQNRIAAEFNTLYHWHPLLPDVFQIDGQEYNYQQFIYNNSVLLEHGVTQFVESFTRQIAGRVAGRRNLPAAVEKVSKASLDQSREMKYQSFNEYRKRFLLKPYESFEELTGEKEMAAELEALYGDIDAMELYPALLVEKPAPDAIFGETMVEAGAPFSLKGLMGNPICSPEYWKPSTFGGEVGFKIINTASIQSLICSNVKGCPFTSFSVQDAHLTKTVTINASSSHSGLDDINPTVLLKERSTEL
Assay: Inhibition of recombinant ovine COX2 catalytic activity using arachidonic acid as substrate preincubated for 5 mins followed by substrate and hemin addition measured after 2 mins by colorimetric method

Compound | IC50
Cc1onc(-c2ccc(Cl)o2)c1-c1ccccc1 | > 50 µM
COc1ccc(-c2noc(CC(=O)O)c2-c2ccc(OC)cc2)cc1 [MOFEZOLAC] | > 50 µM
